According to US8501732B2, “Aminomethyl quinolone compounds” (Hoffmann-La Roche Inc., priority 2011, dated 2013):

Key:
[1] = tested on: phospho(Ser63)-c-jun in HK-2 cells; assay: Cell-Based Assay for JNK Inhibitors (in-cell ELISA, phospho(Ser63)-c-jun after TNFα); settings: HK-2 cells (human proximal tubule cells), 60 minutes compound, then 10 ng/mL TNFα for 30 minutes
How it was run: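 HK-2 human proximal tubule cells were seeded at 40,000 cells/well, cultured 24 h, then serum-starved 16–24 h before TNFα stimulation with compound. Phospho(Ser63)-c-jun was quantified by in-cell ELISA on fixed, permeabilised cells, using a rabbit phospho-specific primary (overnight, 4 °C) and an HRP-linked anti-rabbit secondary. Absorbance was read at 450 nm.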

JNK1 = JNK1 (Homo sapiens (Human), UniProt P45983); assay: In Vitro JNK1 Assay (TR-FRET, phosphorylation of GST-c-Jun); type: biochemical; settings: 0.2 nM active JNK1 kinase, 26.7 nM GST-c-Jun, 2 μM ATP, 30 min at room temperature
Sequence of JNK1 (P45983 whole entry): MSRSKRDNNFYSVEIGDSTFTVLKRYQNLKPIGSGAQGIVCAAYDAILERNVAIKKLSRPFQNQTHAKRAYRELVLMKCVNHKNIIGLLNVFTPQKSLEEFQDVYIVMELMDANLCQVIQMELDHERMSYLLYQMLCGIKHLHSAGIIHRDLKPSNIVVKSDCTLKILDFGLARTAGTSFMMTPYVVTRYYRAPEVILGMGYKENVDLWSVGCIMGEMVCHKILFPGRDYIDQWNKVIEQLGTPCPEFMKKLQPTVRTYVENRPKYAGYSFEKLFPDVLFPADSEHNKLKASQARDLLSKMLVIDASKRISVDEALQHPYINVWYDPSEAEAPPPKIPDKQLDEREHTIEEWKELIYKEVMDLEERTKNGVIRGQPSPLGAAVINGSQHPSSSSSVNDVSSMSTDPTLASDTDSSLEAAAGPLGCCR
How it was run: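 IC50 derived from percent inhibition across 10 serially diluted concentrations, with TR-FRET detection of phospho-c-Jun via an anti-phospho-c-Jun antibody after EDTA stop. Substrate was GST-c-Jun 1-79, reacted 30 min at room temperature in pH 7.0 HEPES buffer with MgCl2, DTT, vanadate and BSA.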

| SMILES | EC50 [1] [µM] | IC50 (JNK1) [µM] |
| --- | --- | --- |
| COC(=O)c1c(CNC(=O)c2ccc3cc[nH]c3c2)c(=O)c2ccc(Cl)cc2n1-c1ccccc1 [Example I-120, 7-Chloro-3-{[(1H-indole-6-carbonyl)-amino]-methyl}-4-oxo-1-phenyl-1,4-dihydro-quinoline-2-carboxylic acid methyl ester] | 3 | 0.015 |
| O=C(NCc1cn(-c2ccccc2)c2cc(Cl)ccc2c1=O)c1ccc(N2CCCCCC2)nc1 [Example I-68, 6-Azepan-1-yl-N-(7-chloro-4-oxo-1-phenyl-1,4-dihydro-quinolin-3-ylmethyl)-nicotinamide] | 17 | 0.021 |
| O=C(NCc1cn(-c2ccccc2)c2cc(Cl)ccc2c1=O)c1ccc(N2CCC(CO)CC2)nc1 [Example I-67, 4-Hydroxymethyl-3,4,5,6-tetrahydro-2H-[1,2′]bipyridinyl-5′-carboxylic acid (7-chloro-4-oxo-1-phenyl-1,4-dihydro-quinolin-3-ylmethyl)-amide] | 6.3 | 0.02 |
| O=C(NCc1cn(-c2ccccc2)c2cc(Cl)ccc2c1=O)c1ccc(N2CCOCC2)nc1 [Example I-40, N-(7-Chloro-4-oxo-1-phenyl-1,4-dihydro-quinolin-3-ylmethyl)-6-morpholin-4-yl-nicotinamide] | 100 | 0.084 |
| O=C(NCc1cn(-c2ccccc2)c2cc(Cl)ccc2c1=O)c1cnc(N2CCCCC2)s1 [Example I-91, 2-Piperidin-1-yl-thiazole-5-carboxylic acid (7-chloro-4-oxo-1-phenyl-1,4-dihydro-quinolin-3-ylmethyl)-amide] | 19 | 0.016 |
| COC(=O)c1c(CNC(=O)c2cccc(OC)c2)c(=O)c2ccc(OC)cc2n1-c1ccccc1 [Example I-161, 7-Methoxy-3-[(3-methoxy-benzoylamino)-methyl]-4-oxo-1-phenyl-1,4-dihydro-quinoline-2-carboxylic acid methyl ester] | 18 | 0.032 |
| O=C(NCc1cn(-c2ccccc2)c2cc(Cl)ccc2c1=O)c1cnn(-c2ccccc2)c1 [Example I-37, 1-Phenyl-1H-pyrazole-4-carboxylic acid (7-chloro-4-oxo-1-phenyl-1,4-dihydro-quinolin-3-ylmethyl)-amide] | 25 | 0.072 |
| O=c1c(CNc2ncnc3cc(F)ccc23)cn(-c2ccccc2)c2cc(Cl)ccc12 [Example I-172, 7-Chloro-3-[(7-fluoro-quinazolin-4-ylamino)-methyl]-1-phenyl-1H-quinolin-4-one] | 100 | 0.079 |
| COC(=O)c1c(CNC(=O)c2ccc(F)cc2)c(=O)c2ccc(Cl)cc2n1-c1ccccc1 [Example I-140, 7-Chloro-3-[(4-fluoro-benzoylamino)-methyl]-4-oxo-1-phenyl-1,4-dihydro-quinoline-2-carboxylic acid methyl ester] | 10 | 0.014 |
| NS(=O)(=O)c1ccc(C(=O)NCc2cn(-c3ccccc3)c3cc(Cl)ccc3c2=O)cc1 [Example I-36, N-(7-Chloro-4-oxo-1-phenyl-1,4-dihydro-quinolin-3-ylmethyl)-4-sulfamoyl-benzamide] | 100 | 0.055 |
| COC(=O)c1c(CNC(=O)c2ccc(-c3ncc[nH]3)cc2)c(=O)c2ccc(C(F)(F)F)nc2n1-c1ccccc1 [Example I-153, 3-{[4-(1H-Imidazol-2-yl)-benzoylamino]-methyl}-4-oxo-1-phenyl-7-trifluoromethyl-1,4-dihydro-[1,8]naphthyridine-2-carboxylic acid methyl ester] | 4.6 | 0.023 |
| COC(=O)c1c(CNC(=O)c2ccc(-c3nnc[nH]3)cc2)c(=O)c2ccc(Cl)cc2n1-c1ccccc1 [Example I-111, 7-Chloro-4-oxo-1-phenyl-3-{[4-(4H-[1,2,4]triazol-3-yl)-benzoylamino]-methyl}-1,4-dihydro-quinoline-2-carboxylic acid methyl ester] | 1.3 | 0.005 |
| CN(C)C1CCN(c2ccc(C(=O)NCc3cn(-c4ccccc4)c4cc(Cl)ccc4c3=O)cn2)CC1 [Example I-75, 4-Dimethylamino-3,4,5,6-tetrahydro-2H-[1,2′]bipyridinyl-5′-carboxylic acid (7-chloro-4-oxo-1-phenyl-1,4-dihydro-quinolin-3-ylmethyl)-amide] | 14 | 0.031 |
| O=C(NCc1cn(-c2ccccc2)c2cc(Cl)ccc2c1=O)c1ccc(C(=O)NC2C3CC4CC2CC(O)(C4)C3)cc1 (centres unmarked) [Example I-99, N-(7-Chloro-4-oxo-1-phenyl-1,4-dihydro-quinolin-3-ylmethyl)-N′-(5-hydroxy-adamantan-2-yl)-terephthalamide] | 6.2 | 0.052 |
| COC(=O)c1c(CNC(=O)c2cccc(Cl)c2)c(=O)c2ccc(Cl)cc2n1-c1ccccc1 [Example I-142, 7-Chloro-3-[(3-chloro-benzoylamino)-methyl]-4-oxo-1-phenyl-1,4-dihydro-quinoline-2-carboxylic acid methyl ester] | 9.7 | 0.017 |
| O=C(NCc1cn(-c2ccccc2)c2cc(Cl)ccc2c1=O)c1ccc(N2CCNCC2)nc1 [Example I-85, N-(7-Chloro-4-oxo-1-phenyl-1,4-dihydro-quinolin-3-ylmethyl)-6-piperazin-1-yl-nicotinamide] | 72 | 0.11 |
| COC(=O)c1c(CNC(=O)c2ccc(OC)cc2)c(=O)c2ccc(Cl)cc2n1-c1ccccc1 [Example I-134, 7-Chloro-3-[(4-methoxybenzoylamino)-methyl]-4-oxo-1-phenyl-1,4-dihydro-quinoline-2-carboxylic acid methyl ester] | 1.9 | 0.007 |
| COC(=O)c1c(CNC(=O)c2cnn(C)c2)c(=O)c2ccc(Cl)cc2n1-c1ccccc1 [Example I-121, 7-Chloro-3-{[(1-methyl-1H-pyrazole-4-carbonyl)-amino]-methyl}-4-oxo-1-phenyl-1,4-dihydro-quinoline-2-carboxylic acid methyl ester] | 1.8 | 0.015 |
| O=C(NCc1cn(-c2ccccc2)c2cc(Cl)ccc2c1=O)c1ccc(N2CCC(O)CC2)nc1 [Example I-76, 4-Hydroxy-3,4,5,6-tetrahydro-2H-[1,2′]bipyridinyl-5′-carboxylic acid (7-chloro-4-oxo-1-phenyl-1,4-dihydro-quinolin-3-ylmethyl)-amide] | 48 | 0.034 |
| CC(C)(C)OC(=O)NC1CCN(c2ccc(C(=O)NCc3cn(-c4ccccc4)c4cc(Cl)ccc4c3=O)cn2)CC1 [Example I-81, {5′-[(7-Chloro-4-oxo-1-phenyl-1,4-dihydro-quinolin-3-ylmethyl)-carbamoyl]-3,4,5,6-tetrahydro-2H-[1,2]bipyridinyl-4-yl}-carbamic acid tert-butyl ester] | 100 | 0.065 |
| Cn1cc(C(=O)NCc2c(-c3ncco3)n(-c3ccccc3)c3ncccc3c2=O)cn1 [Example I-11, 1-Methyl-1H-pyrazole-4-carboxylic acid (2-oxazol-2-yl-4-oxo-1-phenyl-1,4-dihydro-[1,8]naphthyridin-3-ylmethyl)-amide] | 15 | 0.047 |
| COC(=O)c1c(CNC(=O)c2ccccc2F)c(=O)c2ccc(Cl)cc2n1-c1ccccc1 [Example I-145, 7-Chloro-3-[(2-fluoro-benzoylamino)-methyl]-4-oxo-1-phenyl-1,4-dihydro-quinoline-2-carboxylic acid methyl ester] | 100 | 0.065 |
| COc1ccc(C(=O)NCc2c(C(=O)N(C)C)n(-c3ccccc3)c3cc(Cl)ccc3c2=O)cc1 [Example I-15, 7-Chloro-3-[(4-methoxy-benzoylamino)-methyl]-4-oxo-1-phenyl-1,4-dihydro-quinoline-2-carboxylic acid dimethylamide] | 54 | 0.064 |
| COc1ccc(C(=O)NCc2cn(-c3ccccc3)c3cc(Cl)ccc3c2=O)cc1OC [Example I-57, N-(7-Chloro-4-oxo-1-phenyl-1,4-dihydro-quinolin-3-ylmethyl)-3,4-dimethoxy-benzamide] | 26 | 0.08 |
| CS(=O)(=O)C1CCN(c2ccc(C(=O)NCc3cn(-c4ccccc4)c4cc(Cl)ccc4c3=O)cn2)CC1 [Example I-69, 4-Methanesulfonyl-3,4,5,6-tetrahydro-2H-[1,2′]bipyridinyl-5′-carboxylic acid (7-chloro-4-oxo-1-phenyl-1,4-dihydro-quinolin-3-ylmethyl)-amide] | 39 | 0.024 |
| COC(=O)c1c(CNC(=O)c2ccc(N3CCOCC3)nc2)c(=O)c2ccc(Cl)cc2n1-c1ccccc1 [Example I-112, 7-Chloro-3-{[(6-morpholin-4-yl-pyridine-3-carbonyl)-amino]-methyl}-4-oxo-1-phenyl-1,4-dihydro-quinoline-2-carboxylic acid methyl ester] | 1.2 | 0.006 |
| COC(=O)c1c(CNC(=O)c2ccc(Cl)cc2)c(=O)c2ccc(Cl)cc2n1-c1ccccc1 [Example I-132, 7-Chloro-3-[(4-chloro-benzoylamino)-methyl]-4-oxo-1-phenyl-1,4-dihydro-quinoline-2-carboxylic acid methyl ester] | 9.2 | 0.015 |
| CN1CCN(c2ncc(C(=O)NCc3cn(-c4ccccc4)c4cc(Cl)ccc4c3=O)s2)CC1 [Example I-95, 2-(4-Methyl-piperazin-1-yl)-thiazole-5-carboxylic acid (7-chloro-4-oxo-1-phenyl-1,4-dihydro-quinolin-3-ylmethyl)-amide] | 22 | 0.04 |
